Source: US12440494B2, “Compounds useful for inhibiting RAF dimers” (ALBERT EINSTEIN COLLEGE OF MEDICINE, priority 2019, dated 2025)

Tests used:
BRAF^V600E [1] = target: T1, BRAF^V600E (Homo sapiens (Human), UniProt P15056, V600E); experiment: BRAF^V600E kinase activity, Z′-LYTE enzymatic assay (SelectScreen, Invitrogen); type: biochemical; conditions: 100 μM ATP; read-out: BRAF^V600E Inhibition IC50
Experimental: BRAF kinase assays were performed using the Z′-LYTE™ enzymatic assay (Invitrogen, USA). […] Titrations were performed using a 1:3 dilution. Assays were performed using SelectScreen (Invitrogen).
Target sequence in this assay (P15056 whole entry V600E): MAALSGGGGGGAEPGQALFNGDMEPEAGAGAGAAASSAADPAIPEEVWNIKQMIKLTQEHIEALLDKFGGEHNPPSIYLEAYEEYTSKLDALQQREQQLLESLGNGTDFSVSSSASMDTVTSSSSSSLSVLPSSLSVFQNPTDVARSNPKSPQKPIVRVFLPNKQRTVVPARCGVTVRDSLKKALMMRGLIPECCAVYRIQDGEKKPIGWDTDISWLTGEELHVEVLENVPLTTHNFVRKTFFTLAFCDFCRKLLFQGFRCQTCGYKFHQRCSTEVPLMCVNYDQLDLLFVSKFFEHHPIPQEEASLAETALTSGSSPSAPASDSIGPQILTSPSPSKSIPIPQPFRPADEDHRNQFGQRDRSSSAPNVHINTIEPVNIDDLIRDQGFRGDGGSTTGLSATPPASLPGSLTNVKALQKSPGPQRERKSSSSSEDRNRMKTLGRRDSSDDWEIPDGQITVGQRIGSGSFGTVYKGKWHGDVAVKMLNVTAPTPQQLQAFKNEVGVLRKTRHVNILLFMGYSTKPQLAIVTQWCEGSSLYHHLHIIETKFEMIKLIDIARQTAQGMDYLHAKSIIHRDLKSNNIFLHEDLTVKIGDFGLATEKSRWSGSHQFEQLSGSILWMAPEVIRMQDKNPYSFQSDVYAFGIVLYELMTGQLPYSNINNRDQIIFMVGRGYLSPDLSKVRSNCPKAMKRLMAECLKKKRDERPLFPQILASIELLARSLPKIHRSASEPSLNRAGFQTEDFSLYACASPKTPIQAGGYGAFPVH

BRAF^V600E [2] = experiment: Biolayer interferometry, direct binding to purified BRAF; design: species or system human
Experimental: Human BRAF kinase domain (residues 443-723) with V600E mutation in addition to designed mutations to improve expression in E. coli as previously described^12 was cloned into the first multiple cloning site of a pET-28a vector, which expresses a hexa-histidine tag at the N-terminus of BRAF. Recombinant protein was transformed and expressed into E. coli strain BL21-Codon Plus(DE3)-RIPL (Agilent Technologies). Protein purification was performed by a rapid two-step procedure using nickel-affinity chromatography (Ni-NTA) followed by size exclusion chromatography with Superdex200 HR 10/30 (GE Healthcare).
BRAF was biotinylated using EZ-Link™ Sulfo NHS-LC-LC-Biotin (Invitrogen) in phosphate-buffered saline (PBS) according to manufacturer instructions. Excess biotin was removed using size exclusion chromatography. Freshly biotinylated protein was immobilized on Super Streptavidin biosensors (SSA) to high levels (6-8 nm) followed by quenching with biocytin. Compound binding experiments were performed at 25° C. in PBS, 0.01% Tween-20 and 2% DMSO. To reference for bulk solvent effects, binding curves were corrected using data from control protein-free SSA biosensors, which were included in each experiment and were treated similarly to protein-loaded sensors.

FGFR = experiment: Kinase inhibition of known ponatinib target FGFR; type: biochemical
FLT3 = FLT3 (Homo sapiens (Human), UniProt P36888); experiment: Kinase inhibition of known ponatinib target FLT3; type: biochemical
[3] = tested on: p61BRAF^V600E dimers (SKMEL239-C4 cells); experiment: pMEK/pERK inhibition by western blot in SKMEL239-C4 melanoma cells; type: cell-based
Experimental: (§1) Cell lines were purchased from ATCC or provided by Poulikos Poulikakos laboratory at Icahn School of Medicine at Mount Sinai. A375, SKMEL30 and SKMEL2 cells were grown in Dulbecco's modified Eagle's medium (DMEM) with 10% fetal bovine serum (FBS), 1% Pen-Strep, 1% Glutamine. […] CALU6 cells were grown in Roswell Park Memorial Institute medium (RPMI) with 10% fetal bovine serum (FBS), 1% Pen-Strep, 1% Glutamine.

[4] = tested on: BRAF^V600E monomers (A375 cells); experiment: pMEK/pERK inhibition by western blot in A375 melanoma cells; type: cell-based; conditions: compared to ponatinib
Experimental: as §1

[5] = tested on: SMEL239 C4 melanoma cells; experiment: Cell viability assay (Cell-Titer Glo), SKMEL239 C4; type: cell-based; conditions: 72 hours
Experimental: For cell viability assays, we followed the manufacturer's protocol for Cell-Titer Glo (Promega). In brief, cells were plated in 96-well plates at a density of 5000 cells per well. The next day, cells were treated with increasing concentrations of inhibitors for 72 hours at 37° C. At the end of the incubation period, 100 µL of Cell-Titer Glo (Promega) was added to each well and further incubated for 15 min. at room temperature. Cell viability was determined by measuring luminescence and was detected by a F200 PRO microplate reader (TECAN). Viability assays were performed in at least triplicate and the data normalized to vehicle-treated control wells. IC50 values were determined by nonlinear regression analysis using Prism software (Graphpad).

[6] = target: BRAF monomer (BRAF509H mutant) (Homo sapiens (Human), UniProt P15056, R509H); experiment: Isothermal titration calorimetry with BRAF509H mutant unable to dimerize; type: binding; conditions: PBS plus 2% DMSO
Experimental: ITC was recorded using a MicroCal PEAQ-ITC instrument. […] Immediately before each ITC measurement, concentrated protein solution was diluted 0.8× in PBS, matched to 2% DMSO and used in the syringe. Protein was titrated in 18 or 20 injections of 2 l volume until saturation. Thermodynamic parameters were obtained using PEAQ-ITC analysis software and a one-site binding model.

BRAF/CRAF heterodimers = experiment: CRAF co-immunoprecipitation monitoring BRAF/CRAF heterodimerization in cells; type: cell-based; conditions: 1 μM (PHI1) or 1-5 μM (ponatinib), 1 hr
Experimental: (§2) Western blots were performed from whole cell lysates (WCL) prepared in lysis buffer containing 50 mM Tris-HCl pH7.5, 1% NP40, 150 mM NaCl, 1 mM EDTA and 10% glycerol in the presence of protease inhibitor cocktail (Roche). […] Co-immunoprecipitation assays were performed from whole cell lysate prepared in lysis buffer in the presence of protease inhibitor cocktail (Roche) and incubated at 4° C. overnight with gentle rotation, then protein G beads were added and incubated for 2 hrs more at 4° C. Kinase activity assay were performed following manufactured protocol with some modifications (Millipore). In brief, BRAF and CRAF kinase domain, and MEK1 recombinant proteins were incubated for 15 min with inhibitors, then corresponding substrates were added and incubated for 30 min at 30° C. and assay for western blot.

BRAF/MEK complex = experiment: MEK co-immunoprecipitation monitoring BRAF/MEK complex formation in cells; type: cell-based; conditions: 1 μM (PHI1) or 1-5 μM (ponatinib), 1 hr
Experimental: as §2

BRAF^V600E [7] = target: T1, BRAF^V600E; experiment: In vitro kinase assay, BRAF^V600E activity to phosphorylate recombinant MEK (western blot); type: biochemical; conditions: western blot readout
Target sequence in this assay (P15056 457-717 V600E): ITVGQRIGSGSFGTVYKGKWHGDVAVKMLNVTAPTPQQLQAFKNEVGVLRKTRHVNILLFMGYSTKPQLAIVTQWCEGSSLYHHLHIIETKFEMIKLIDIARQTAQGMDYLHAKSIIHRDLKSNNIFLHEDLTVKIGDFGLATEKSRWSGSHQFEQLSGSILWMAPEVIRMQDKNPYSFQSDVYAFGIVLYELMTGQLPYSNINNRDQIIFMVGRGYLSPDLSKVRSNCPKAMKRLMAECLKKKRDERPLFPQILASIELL
Experimental: as §2

CRAF = CRAF (Homo sapiens (Human), UniProt P04049); experiment: In vitro CRAF kinase activity assay (western blot); type: biochemical
Experimental: as §2

ERK signaling = experiment: Inhibition of ERK signaling in BRAF^V600E, p61BRAF^V600E and RAS mutant/BRAF^WT cell lines (immunoblot); type: cell-based; conditions: 1 μM or 5 μM, 1 hr, all cell lines
Experimental: as §1

Sequence of CRAF (P04049 349-609, species assumed): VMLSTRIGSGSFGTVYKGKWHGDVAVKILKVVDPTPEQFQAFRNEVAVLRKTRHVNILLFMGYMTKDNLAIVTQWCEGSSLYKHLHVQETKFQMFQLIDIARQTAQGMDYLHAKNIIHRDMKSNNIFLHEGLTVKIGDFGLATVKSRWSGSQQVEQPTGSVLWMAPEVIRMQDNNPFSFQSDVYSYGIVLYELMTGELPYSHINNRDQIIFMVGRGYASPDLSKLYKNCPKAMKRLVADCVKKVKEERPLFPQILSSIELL
Sequence of FLT3 (P36888 27-993, species assumed): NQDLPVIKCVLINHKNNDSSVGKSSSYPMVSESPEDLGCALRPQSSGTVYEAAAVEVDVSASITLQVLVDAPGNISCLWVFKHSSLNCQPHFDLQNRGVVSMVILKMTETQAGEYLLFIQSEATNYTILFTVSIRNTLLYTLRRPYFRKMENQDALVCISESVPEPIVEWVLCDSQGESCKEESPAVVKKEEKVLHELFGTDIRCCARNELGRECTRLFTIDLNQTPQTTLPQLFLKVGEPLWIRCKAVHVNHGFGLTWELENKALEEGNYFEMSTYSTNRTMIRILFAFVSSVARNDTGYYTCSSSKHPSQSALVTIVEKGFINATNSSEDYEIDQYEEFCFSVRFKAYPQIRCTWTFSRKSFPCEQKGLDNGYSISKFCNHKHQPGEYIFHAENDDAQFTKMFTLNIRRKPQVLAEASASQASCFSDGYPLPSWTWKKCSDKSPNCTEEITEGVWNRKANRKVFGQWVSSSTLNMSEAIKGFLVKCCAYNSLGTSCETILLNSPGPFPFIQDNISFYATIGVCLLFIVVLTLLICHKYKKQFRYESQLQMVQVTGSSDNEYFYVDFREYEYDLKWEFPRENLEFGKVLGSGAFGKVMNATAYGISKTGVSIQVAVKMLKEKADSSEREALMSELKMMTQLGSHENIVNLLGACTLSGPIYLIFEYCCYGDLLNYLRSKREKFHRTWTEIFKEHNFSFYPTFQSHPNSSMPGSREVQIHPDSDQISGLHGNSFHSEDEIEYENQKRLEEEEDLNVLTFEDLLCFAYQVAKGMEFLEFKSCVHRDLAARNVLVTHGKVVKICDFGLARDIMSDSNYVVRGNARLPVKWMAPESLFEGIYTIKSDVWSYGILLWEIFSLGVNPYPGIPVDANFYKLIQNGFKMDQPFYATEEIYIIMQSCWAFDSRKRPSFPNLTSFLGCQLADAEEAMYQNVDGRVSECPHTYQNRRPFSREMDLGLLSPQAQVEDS
Sequence of BRAF monomer (BRAF509H mutant) (P15056 443-723 R509H limits assumed): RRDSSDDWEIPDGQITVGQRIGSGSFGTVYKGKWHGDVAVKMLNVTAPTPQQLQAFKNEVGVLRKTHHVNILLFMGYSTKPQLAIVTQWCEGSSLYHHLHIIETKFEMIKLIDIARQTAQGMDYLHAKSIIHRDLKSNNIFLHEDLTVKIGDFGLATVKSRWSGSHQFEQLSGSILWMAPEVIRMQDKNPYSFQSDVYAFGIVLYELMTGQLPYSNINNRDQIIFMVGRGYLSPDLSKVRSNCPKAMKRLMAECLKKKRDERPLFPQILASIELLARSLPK

| Compound | IC50 (BRAF^V600E [1]) [µM] | other results |
| --- | --- | --- |
| C#Cc1cc(C(=O)Nc2ccc(CNCCN3CCN(C(=O)OC(C)(C)C)CC3)c(C(F)(F)F)c2)ccc1C [Cmp. 9, Tert-Butyl4-[2-([[4-(3-Ethynyl-4-Methylbenzamido)-2-(Trifluoromethyl)Phenyl]Methyl] Amino)Ethyl]Piperazine-1-Carboxylate] | 10.9 |  |
| C#Cc1cc(C(=O)Nc2ccc(CNCCN3CCNCC3)c(C(F)(F)F)c2)ccc1C [Cmp. 12, 3-Ethynyl-4-Methyl-N-[4-([[2-(Piperazin-1-Yl)Ethyl]Amino]Methyl)-3-(Trifluoromethyl)Phenyl] benzamide] | 11.9 |  |
| Cc1ccc(C(=O)Nc2ccc(CNCCN3CCNCC3)c(C(F)(F)F)c2)cc1C#Cc1cnc2cccnn12 [Cmp. 13, 3-(2-[imidazo[1,2-b]pyridazin-3-yl]ethynyl)-4-methyl-n-[4-([[2-(piperazin-1-yl)ethyl]amino]methyl)-3-(trifluoromethyl)phenyl]benzamide] | 0.0055 |  |
| Cc1ccc(C(=O)Nc2ccc(CNCCN3CCN(S(C)(=O)=O)CC3)c(C(F)(F)F)c2)cc1C#Cc1cnc2cccnn12 [Cmp. 6, 3-(imidazo[1,2-b]pyridazin-3-ylethynyl)-4-methyl-N-(4-(((2-(4-(methylsulfonyl)piperazin-1-yl)ethyl)amino)methyl)-3-(trifluoromethyl)phenyl)benzamide] | 0.0294 |  |
| Cc1ccc(C(=O)Nc2ccc(CNCCN3CCOCC3)c(C(F)(F)F)c2)cc1C#Cc1cnc2cccnn12 [PHI1, 3-(imidazo[1,2-b]pyridazin-3-ylethynyl)-4-methyl-N-(4-(((2-morpholinoethyl)amino)methyl)-3-(trifluoromethyl)phenyl)benzamide] | 0.0104 | Difference in Koff values versus ponatinib (BLI) (BRAF^V600E [2]): no significant difference; Affinity for BRAF^V600E compared to ponatinib (BLI) (BRAF^V600E [2]; 25° C., PBS, 0.01% Tween-20, 2% DMSO): higher affinity; Reduction of inhibitory activity for FGFR relative to ponatinib (FGFR): 43 fold; Reduction of inhibitory activity for FLT3 relative to ponatinib (FLT3): 10 fold; IC50 ([3]; SKMEL239-C4 cells, 1 hr treatment): 0.3 to 0.5 µM; Co-operativity in second site inhibition of BRAF^V600E dimer (p-ERK IC50 upon Encorafenib pre-treatment) ([3]; SKMEL239 C4 cells with vs without Encorafenib pre-treatment): positive co-operativity; Activity against BRAF^V600E monomers in A375 cells [4]: significantly reduced compared to ponatinib; Growth inhibition (viability) [5]: inhibits effectively the growth; Binding affinity for BRAF monomers (ITC) [6]: high micromolar affinity; Induction of BRAF/CRAF complexes (BRAF/CRAF heterodimers): induces less; Induction of BRAF/MEK complexes (BRAF/MEK complex): induces less |
| CCN(C)S(=O)(=O)Nc1ccc(F)c(C(=O)c2c[nH]c3ncc(-c4cnc(C5CC5)nc4)cc23)c1F [PLX7904, reference compound] | 0.0067 |  |
| N#Cc1c(Oc2ccc(F)c(NC(=O)Cc3cccc(C(F)(F)F)c3)c2)ccc2nc(NC(=O)C3CC3)sc12 [TAK-632, reference compound] | 0.0362 |  |
| Cc1ccc(C(=O)Nc2ccc(CNCCc3ccncn3)c(C(F)(F)F)c2)cc1C#Cc1cnc2cccnn12 [Cmp. 7, 3-(imidazo[1,2-b]pyridazin-3-ylethynyl)-4-methyl-N-(4-(((2-(pyrimidin-4-yl)ethyl)amino)methyl)-3-(trifluoromethyl)phenyl)benzamide] | 0.0443 |  |
| C#Cc1cc(C(=O)Nc2ccc(CNCCN3CCN(c4ccccn4)CC3)c(C(F)(F)F)c2)ccc1C [Cmp. 14, 3-Ethynyl-4-Methyl-N-(4-(((2-(4-(Pyridin-2-Yl)Piperazin-1-Yl)Ethyl)Amino)Methyl)-3-(Trifluoromethyl)Phenyl) benzamide] | 1.83 |  |
| C#Cc1cc(C(=O)Nc2ccc(CNCCN3CCOCC3)c(C(F)(F)F)c2)ccc1C [Cmp. 10, 3-ethynyl-4-methyl-N-(4-(((2-morpholinoethyl)amino)methyl)-3-(trifluoromethyl)phenyl)benzamide] | 1.36 |  |
| COc1cc(N2CCN(CCNCc3ccc(NC(=O)c4ccc(C)c(C#Cc5cnc6cccnn56)c4)cc3C(F)(F)F)CC2)ncn1 [Cmp. 4, 3-(imidazo[1,2-b]pyridazin-3-ylethynyl)-N-(4-(((2-(4-(6-methoxypyrimidin-4-yl)piperazin-1-yl)ethyl)amino)methyl)-3-(trifluoromethyl)phenyl)-4-methylbenzamide] | 0.048 |  |
| Cc1ccc(C(=O)Nc2ccc(CNCCN3CCC(=O)CC3)c(C(F)(F)F)c2)cc1C#Cc1cnc2cccnn12 [Cmp. 5, 3-(imidazo[1,2-b]pyridazin-3-ylethynyl)-4-methyl-N-(4-(((2-(4-oxopiperidin-1-yl)ethyl)amino)methyl)-3-(trifluoromethyl)phenyl)benzamide] | 0.0307 |  |
| C#Cc1cc(C(=O)Nc2ccc(CNCCN3CCN(c4ccccc4)CC3)c(C(F)(F)F)c2)ccc1C [Cmp. 11, 3-Ethynyl-4-Methyl-N-[4-([[2-(4-Phenylpiperazin-1-Yl)Ethyl]Amino]Methyl)-3-(Trifluoromethyl)Phenyl] benzamide] | 8.94 |  |
| Cc1ccc(C(=O)Nc2ccc(CN3CCN(C)CC3)c(C(F)(F)F)c2)cc1C#Cc1cnc2cccnn12 [Ponatinib] |  | Inhibition of BRAF^V600E phosphorylation of recombinant MEK (BRAF^V600E [7]): potent inhibitor; Inhibition of CRAF activity (CRAF): potently inhibited; Inhibition of ERK signaling (ERK signaling): inhibited ERK signaling |
| C#Cc1cc(C(=O)Nc2ccc(CNCCN3CCN(C(=O)OC)CC3)c(C(F)(F)F)c2)ccc1C [Cmp. 8, Methyl 4-[2-([[4-(3-Ethynyl-4-Methylbenzamido)-2-(Trifluoromethyl)Phenyl]Methyl] Amino)Ethyl]Piperazine-1-Carboxylate] | 1.79 |  |
